Measurements reported in US20090264426A1, “Bicyclic aromatic substituted pyridone derivative” (priority 2005, published 2009).

Molecular target: T1, human MCH-1R (Homo sapiens, UniProt Q99705)
T1 construct: expressed in transfected cells; host or cells: CHO-K1
Experiment: MCH binding inhibition test
Conditions: 50% inhibition of specific [125I]MCH (50 pM) binding; membranes of MCH-1R expressing CHO-K1 cells; 25° C., 1 hour, pH 7.4
Procedure: A human MCH-1R encoding cDNA sequence [FEBS Letters, Vol. 398, 253 (1996); Biochimica et Biophisica Acta, Vol. 1401, 216 (1998)] was cloned to a plasmid vector pEF/myc/cyto (Invitrogen Corporation). The obtained expression vector was transfected to host cells CHO-K1 (American Type Culture Collection) using Lipofectamine Plus Reagent (Life Technology Inc.) to provide MCH-1R expression cells.
Membrane samples prepared from the MCH-1R expression cells were incubated with each test compound and 50 pM of [^125I]MCH (NEN Co.), in an assay buffer (50 mM Tris buffer comprising 10 mM magnesium chloride, 2 mM ethylenediamine tetraacetate, 0.01% bacitracin and 0.2% bovine serum albumin; pH 7.4) at 25° C. for an hour, followed by filtration through a glass filter GF/C (Wattman Co.). After washing the glass filter with 50 mM Tris buffer (pH 7.4) comprising 10 mM magnesium chloride, 2 mM ethylenediamine tetraacetate and 0.04% Tween-20, the radioactive activity on the glass filter was measured. The non-specific binding was measured in the presence of 1 μM human MCH and 50% inhibition concentration (IC50 value) of each test compound to the specific [^125I]MCH binding was determined.

T1 sequence (Q99705 whole entry): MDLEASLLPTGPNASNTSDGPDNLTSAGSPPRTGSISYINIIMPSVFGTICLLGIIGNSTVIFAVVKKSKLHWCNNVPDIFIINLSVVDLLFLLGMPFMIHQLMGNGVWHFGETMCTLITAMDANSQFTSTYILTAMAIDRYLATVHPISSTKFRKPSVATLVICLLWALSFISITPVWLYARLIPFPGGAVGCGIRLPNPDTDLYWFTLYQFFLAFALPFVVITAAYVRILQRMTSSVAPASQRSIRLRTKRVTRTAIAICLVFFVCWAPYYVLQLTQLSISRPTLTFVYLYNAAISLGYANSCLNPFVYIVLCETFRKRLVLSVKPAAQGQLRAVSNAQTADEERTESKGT

An IC50 of 6.4 nM was found for `O=c1cc(OCc2ccc(Cl)cn2)ccn1-c1ccc2nc(OCCN3CCCC3)ccc2c1` [Example 8, 4-[(5-Chloropyridin-2-yl)methoxy]-1-[2-(2-pyrrolidin-1-ylethoxy)quinolin-6-yl]pyridin-2(1H)-one] in this work.

An IC50 of 7.8 nM was found for `O=c1cc(OCc2ccc(Cl)cn2)ccn1-c1ccc2nc(OCCCN3CCCC3)ccc2c1` [Example 20, 4-[(5-Chloropyridin-2-yl)methoxy]-1-[2-(3-pyrrolidin-1-ylpropoxy)quinolin-6-yl]pyridin-2(1H)-one] in this work.

An IC50 of 6.2 nM was found for `CCNCc1ccc2cc(-n3ccc(OCc4ccc(F)cc4)cc3=O)ccc2n1` [Example 23, 1-{2-[(Ethylamino)methyl]quinolin-6-yl}-4-[(4-fluorobenzyl)oxy]pyridin-2(1H)-one] in this work.

An IC50 of 80 nM was found for `O=c1cc(OCc2ccccc2)ccn1-c1ccc2cn(CCN3CCCC3)nc2c1` [Example 27, 4-(Benzyloxy)-1-[2-(2-pyrrolidin-1-ylethyl)-2H-indazol-6-yl]pyridin-2(1H)-one] in this work.

An IC50 of 7.6 nM was found for `O=c1cc(OCc2ccccc2)ccn1-c1ccc2cc(CN3CCC3)ccc2n1` [Example 28, 1-[6-(Azetidin-1-ylmethyl)quinolin-2-yl]-4-(benzyloxy)pyridin-2(1H)-one] in this work.

An IC50 of 5.9 nM was found for `O=c1cc(OCc2ccc(Cl)cn2)ccn1-c1ccc2nc(CN3CCC3)ccc2c1` [Example 30, 1-[2-(Azetidin-1-ylmethyl)quinolin-6-yl]-4-[(5-chloropyridin-2-yl)methoxy]pyridin-2(1H)-one] in this work.

An IC50 of 2.2 nM was found for `CNCc1ccc2cc(-n3ccc(OCc4ccc(Cl)cc4)cc3=O)ccc2n1` [Example 35, 4-[(4-Chlorobenzyl)oxy]-1-{2-[(methylamino)methyl]quinolin-6-yl}pyridin-2(1H)-one] in this work.

An IC50 of 3.1 nM was found for `O=c1cc(OCc2ccccc2)ccn1-c1ccc2cc(OCCN3CCCC3)ccc2c1` [Example 38, 4-(Benzyloxy)-1-[6-(2-pyrrolidin-1-ylethoxy)-2-naphthyl]pyridin-2(1H)-one] in this work.

An IC50 of 5.2 nM was found for `CCCNCc1ccc2cc(-n3ccc(OCc4ccc(Cl)cn4)cc3=O)ccc2n1` [Example 40, 4-[(5-Chloropyridin-2-yl)methoxy]-1-{2-[(propylamino)methyl]quinolin-6-yl}pyridin-2(1H)-one] in this work.

An IC50 of 10.1 nM was found for `O=c1cc(/C=C/c2ccc(Cl)cn2)ccn1-c1ccc2nc(OCCN3CCCC3)cnc2c1` [Example 57, 4-[(E)-2-(5-chloropyridin-2-yl)vinyl]-1-[2-(2-pyrrolidin-1-ylethoxy)quinoxalin-6-yl]pyridin-2(1H)-one] in this work.

An IC50 of 22 nM was found for `Cc1c(CCCN2CCCC2)nc2ccc(-n3ccc(OCc4ccc(Cl)cn4)cc3=O)cn12` [Example 63, 4-[(5-Chloropyridin-2-yl)methoxy]-1-[3-methyl-2-(3-pyrrolidin-1-ylpropyl)imidazo[1,2-a]pyridin-6-yl]pyridin-2(1H)-one] in this work.

An IC50 of 5.1 nM was found for `Cn1c(CCCN2CCCC2)nc2ccc(-n3ccc(OCc4ccc(Cl)cc4)cc3=O)cc21` [Example 65, 4-[(4-Chlorobenzyl)oxy]-1-[1-methyl-2-(3-pyrrolidin-1-ylpropyl)-1H-benzimidazol-6-yl]pyridin-2(1H)-one] in this work.

An IC50 of 11 nM was found for `Cn1c(CN2CCCC2)cc2ccc(-n3ccc(OCc4ccc(Cl)cn4)cc3=O)cc21` [Example 70, 4-[(5-Chloropyridin-2-yl)methoxy]-1-[1-methyl-2-(pyrrolidin-1-ylmethyl)-1H-indol-6-yl]pyridin-2(1H)-one] in this work.

An IC50 of 2.9 nM was found for `CCCNCCc1ccc2cc(-n3ccc(OCc4ccccc4)cc3=O)ccc2n1` [Example 76, 4-(Benzyloxy)-1-{2-[2-(propylamino)ethyl]quinolin-6-yl}pyridin-2(1H)-one] in this work.

An IC50 of 19 nM was found for `O=c1cc(OCc2ccc(F)cc2)ccn1-c1ccc2oc(CN3CCCCCC3)cc2c1` [Example 89, 1-[2-(Azepan-1-ylmethyl)-1-benzofuran-5-yl]-4-[(4-fluorobenzyl)oxy]pyridin-2(1H)-one] in this work.

An IC50 of 9.8 nM was found for `CC(C)N(C)c1nc2ccc(-n3ccc(OCCOc4ccc(F)cc4)cc3=O)cc2[nH]1` [Example 90, 4-[2-(4-fluorophenoxy)ethoxy]-1-{2-[isopropyl(methyl)amino]-1H-benzimidazol-6-yl}pyridin-2(1H)-one] in this work.

An IC50 of 10.5 nM was found for `O=c1cc(OCc2ccc(F)cc2)ccn1OCc1ccc2nc(CN3CCCC3)ccc2c1` [Example 94, 4-[(4-Fluorobenzyl)oxy]-1-{[2-(pyrrolidin-1-ylmethyl)quinolin-6-yl]methoxy}pyridin-2(1H)-one] in this work.

An IC50 of 23 nM was found for `O=c1cc(OCc2ccc(F)cc2)ccn1-c1ccc2nc(CN3CCC3)ccc2n1` [Example 95, 1-[6-(Azetidin-1-ylmethyl)-1,5-naphthyridin-2-yl]-4-[(4-fluorobenzyl)oxy]pyridin-2(1H)-one] in this work.

An IC50 of 9.6 nM was found for `O=c1cc(OCc2ccc(F)cc2)ccn1-c1ccc2cc(CN3CCC3)cnc2c1` [Example 98, 1-[3-(Azetidin-1-ylmethyl)quinolin-7-yl]-4-[(4-fluorobenzyl)oxy]pyridin-2(1H)-one] in this work.

An IC50 of 6 nM was found for `O=c1cc(OCc2ccc(F)cc2)ccn1-c1ccc2cc(CN3CCC3)ncc2c1` [Example 99, 1-[3-(Azetidin-1-ylmethyl)isoquinolin-7-yl]-4-[(4-fluorobenzyl)oxy]pyridin-2(1H)-one] in this work.
